Assay results as given in the NIST ThermoML archive (doi:10.1016/j.jct.2013.05.051).
± gives the expanded uncertainty stated by the source.

Experiment: xn = mol fraction of the nth substance listed
Details: Liquid, Vibrating tube method, x2 = 0

`CCCCCCC` [heptane] + CCCCCCCO showed a mass density (298.15 K, 100 kPa) of 679.5 ± 1.4 kg/m3, a mass density (298.15 K, 1000 kPa) of 680.4 ± 1.4 kg/m3 and a mass density (298.15 K, 5000 kPa) of 684.2 ± 1.4 kg/m3. For the same compound, the mass density (298.15 K, 10000 kPa) was 688.6 ± 1.4 kg/m3, the mass density (298.15 K, 15000 kPa) was 692.8 ± 1.4 kg/m3 and the mass density (298.15 K, 20000 kPa) was 696.7 ± 1.5 kg/m3. It also gave a mass density (298.15 K, 25000 kPa) of 700.4 ± 1.5 kg/m3, a mass density (298.15 K, 30000 kPa) of 704 ± 1.5 kg/m3 and a mass density (298.15 K, 35000 kPa) of 707.4 ± 1.5 kg/m3. For the same compound, the mass density (298.15 K, 40000 kPa) was 710.7 ± 1.5 kg/m3, the mass density (298.15 K, 45000 kPa) was 713.8 ± 1.5 kg/m3 and the mass density (298.15 K, 50000 kPa) was 716.8 ± 1.5 kg/m3. The mass density (298.15 K, 55000 kPa) was 719.7 ± 1.6 kg/m3, the mass density (298.15 K, 60000 kPa) was 722.5 ± 1.6 kg/m3 and the mass density (298.15 K, 65000 kPa) was 725.2 ± 1.6 kg/m3. For the same compound, the mass density (298.15 K, 70000 kPa) was 727.9 ± 1.6 kg/m3, the mass density (298.15 K, 80000 kPa) was 732.9 ± 1.7 kg/m3 and the mass density (298.15 K, 90000 kPa) was 737.7 ± 1.7 kg/m3. The mass density (298.15 K, 100000 kPa) was 742.3 ± 1.8 kg/m3, the mass density (298.15 K, 110000 kPa) was 746.6 ± 1.8 kg/m3 and the mass density (298.15 K, 120000 kPa) was 750.7 ± 1.8 kg/m3. It also gave a mass density (298.15 K, 130000 kPa) of 754.6 ± 1.9 kg/m3, a mass density (298.15 K, 140000 kPa) of 758.4 ± 1.9 kg/m3 and a mass density (313.15 K, 100 kPa) of 666.6 ± 1.4 kg/m3. The mass density (313.15 K, 1000 kPa) was 667.6 ± 1.4 kg/m3, the mass density (313.15 K, 5000 kPa) was 671.8 ± 1.4 kg/m3 and the mass density (313.15 K, 10000 kPa) was 676.7 ± 1.4 kg/m3. It also gave a mass density (313.15 K, 15000 kPa) of 681.3 ± 1.4 kg/m3, a mass density (313.15 K, 20000 kPa) of 685.6 ± 1.5 kg/m3 and a mass density (313.15 K, 25000 kPa) of 689.5 ± 1.5 kg/m3. The mass density (313.15 K, 30000 kPa) was 693.5 ± 1.5 kg/m3, the mass density (313.15 K, 35000 kPa) was 697.1 ± 1.5 kg/m3 and the mass density (313.15 K, 40000 kPa) was 700.5 ± 1.5 kg/m3. The mass density (313.15 K, 45000 kPa) was 703.9 ± 1.5 kg/m3, the mass density (313.15 K, 50000 kPa) was 707.2 ± 1.6 kg/m3 and the mass density (313.15 K, 55000 kPa) was 710.3 ± 1.6 kg/m3. It also gave a mass density (313.15 K, 60000 kPa) of 713.3 ± 1.6 kg/m3, a mass density (313.15 K, 65000 kPa) of 716.1 ± 1.6 kg/m3 and a mass density (313.15 K, 70000 kPa) of 718.9 ± 1.6 kg/m3. It also gave a mass density (313.15 K, 80000 kPa) of 724.2 ± 1.7 kg/m3, a mass density (313.15 K, 90000 kPa) of 729.3 ± 1.7 kg/m3 and a mass density (313.15 K, 100000 kPa) of 734 ± 1.8 kg/m3. The mass density (313.15 K, 110000 kPa) was 738.6 ± 1.8 kg/m3, the mass density (313.15 K, 120000 kPa) was 742.8 ± 1.9 kg/m3 and the mass density (313.15 K, 130000 kPa) was 747 ± 1.9 kg/m3. For the same compound, the mass density (313.15 K, 140000 kPa) was 751.1 ± 2 kg/m3, the mass density (333.15 K, 100 kPa) was 648.9 ± 1.4 kg/m3 and the mass density (333.15 K, 1000 kPa) was 650 ± 1.4 kg/m3. The mass density (333.15 K, 5000 kPa) was 655 ± 1.4 kg/m3, the mass density (333.15 K, 10000 kPa) was 660.6 ± 1.4 kg/m3 and the mass density (333.15 K, 15000 kPa) was 665.8 ± 1.4 kg/m3. It also gave a mass density (333.15 K, 20000 kPa) of 670.6 ± 1.5 kg/m3, a mass density (333.15 K, 25000 kPa) of 675.1 ± 1.5 kg/m3 and a mass density (333.15 K, 30000 kPa) of 679.4 ± 1.5 kg/m3. For the same compound, the mass density (333.15 K, 35000 kPa) was 683.4 ± 1.5 kg/m3, the mass density (333.15 K, 40000 kPa) was 687.3 ± 1.5 kg/m3 and the mass density (333.15 K, 45000 kPa) was 690.9 ± 1.5 kg/m3. It also gave a mass density (333.15 K, 50000 kPa) of 694.4 ± 1.6 kg/m3, a mass density (333.15 K, 55000 kPa) of 697.7 ± 1.6 kg/m3 and a mass density (333.15 K, 60000 kPa) of 701 ± 1.6 kg/m3. For the same compound, the mass density (333.15 K, 65000 kPa) was 704.1 ± 1.6 kg/m3, the mass density (333.15 K, 70000 kPa) was 707.1 ± 1.7 kg/m3 and the mass density (333.15 K, 80000 kPa) was 712.8 ± 1.7 kg/m3. The mass density (333.15 K, 90000 kPa) was 718.2 ± 1.8 kg/m3, the mass density (333.15 K, 100000 kPa) was 723.2 ± 1.8 kg/m3 and the mass density (333.15 K, 110000 kPa) was 728.1 ± 1.8 kg/m3. The mass density (333.15 K, 120000 kPa) was 732.6 ± 1.9 kg/m3, the mass density (333.15 K, 130000 kPa) was 737 ± 1.9 kg/m3 and the mass density (333.15 K, 140000 kPa) was 741.1 ± 2 kg/m3. The mass density (353.15 K, 100 kPa) was 631.2 ± 1.4 kg/m3, the mass density (353.15 K, 1000 kPa) was 632.1 ± 1.4 kg/m3 and the mass density (353.15 K, 5000 kPa) was 637.8 ± 1.4 kg/m3. For the same compound, the mass density (353.15 K, 10000 kPa) was 644.3 ± 1.4 kg/m3, the mass density (353.15 K, 15000 kPa) was 650.3 ± 1.4 kg/m3 and the mass density (353.15 K, 20000 kPa) was 655.7 ± 1.5 kg/m3. The mass density (353.15 K, 25000 kPa) was 660.8 ± 1.5 kg/m3, the mass density (353.15 K, 30000 kPa) was 665.5 ± 1.5 kg/m3 and the mass density (353.15 K, 35000 kPa) was 670 ± 1.5 kg/m3. The mass density (353.15 K, 40000 kPa) was 674.1 ± 1.5 kg/m3, the mass density (353.15 K, 45000 kPa) was 678.1 ± 1.6 kg/m3 and the mass density (353.15 K, 50000 kPa) was 682 ± 1.6 kg/m3. For the same compound, the mass density (353.15 K, 55000 kPa) was 685.5 ± 1.6 kg/m3, the mass density (353.15 K, 60000 kPa) was 689.1 ± 1.6 kg/m3 and the mass density (353.15 K, 65000 kPa) was 692.4 ± 1.6 kg/m3. For the same compound, the mass density (353.15 K, 70000 kPa) was 695.7 ± 1.7 kg/m3, the mass density (353.15 K, 80000 kPa) was 701.7 ± 1.7 kg/m3 and the mass density (353.15 K, 90000 kPa) was 707.5 ± 1.8 kg/m3. The mass density (353.15 K, 100000 kPa) was 712.8 ± 1.8 kg/m3, the mass density (353.15 K, 110000 kPa) was 717.9 ± 1.9 kg/m3 and the mass density (353.15 K, 120000 kPa) was 722.7 ± 1.9 kg/m3. For the same compound, the mass density (353.15 K, 130000 kPa) was 727.3 ± 2 kg/m3, the mass density (353.15 K, 140000 kPa) was 731.6 ± 2 kg/m3 and the mass density (373.15 K, 1000 kPa) was 613.3 ± 1.4 kg/m3. The mass density (373.15 K, 5000 kPa) was 620.1 ± 1.4 kg/m3, the mass density (373.15 K, 10000 kPa) was 627.7 ± 1.4 kg/m3 and the mass density (373.15 K, 15000 kPa) was 634.5 ± 1.5 kg/m3. The mass density (373.15 K, 20000 kPa) was 640.7 ± 1.5 kg/m3, the mass density (373.15 K, 25000 kPa) was 646.3 ± 1.5 kg/m3 and the mass density (373.15 K, 30000 kPa) was 651.6 ± 1.5 kg/m3. The mass density (373.15 K, 35000 kPa) was 656.5 ± 1.5 kg/m3, the mass density (373.15 K, 40000 kPa) was 661.1 ± 1.5 kg/m3 and the mass density (373.15 K, 45000 kPa) was 665.5 ± 1.6 kg/m3. It also gave a mass density (373.15 K, 50000 kPa) of 669.6 ± 1.6 kg/m3, a mass density (373.15 K, 55000 kPa) of 673.5 ± 1.6 kg/m3 and a mass density (373.15 K, 60000 kPa) of 677.3 ± 1.6 kg/m3. It also gave a mass density (373.15 K, 65000 kPa) of 680.8 ± 1.7 kg/m3, a mass density (373.15 K, 70000 kPa) of 684.3 ± 1.7 kg/m3 and a mass density (373.15 K, 80000 kPa) of 690.8 ± 1.7 kg/m3. It also gave a mass density (373.15 K, 90000 kPa) of 696.9 ± 1.8 kg/m3, a mass density (373.15 K, 100000 kPa) of 702.6 ± 1.9 kg/m3 and a mass density (373.15 K, 110000 kPa) of 708 ± 1.9 kg/m3. For the same compound, the mass density (373.15 K, 120000 kPa) was 713 ± 2 kg/m3, the mass density (373.15 K, 130000 kPa) was 717.9 ± 2 kg/m3 and the mass density (373.15 K, 140000 kPa) was 722.3 ± 2.1 kg/m3. The mass density (393.15 K, 1000 kPa) was 593.5 ± 1.4 kg/m3, the mass density (393.15 K, 5000 kPa) was 601.7 ± 1.4 kg/m3 and the mass density (393.15 K, 10000 kPa) was 610.6 ± 1.4 kg/m3. For the same compound, the mass density (393.15 K, 15000 kPa) was 618.4 ± 1.5 kg/m3, the mass density (393.15 K, 20000 kPa) was 625.4 ± 1.5 kg/m3 and the mass density (393.15 K, 25000 kPa) was 631.7 ± 1.5 kg/m3. The mass density (393.15 K, 30000 kPa) was 637.5 ± 1.5 kg/m3, the mass density (393.15 K, 35000 kPa) was 643 ± 1.5 kg/m3 and the mass density (393.15 K, 40000 kPa) was 648 ± 1.6 kg/m3. For the same compound, the mass density (393.15 K, 45000 kPa) was 652.8 ± 1.6 kg/m3, the mass density (393.15 K, 50000 kPa) was 657.2 ± 1.6 kg/m3 and the mass density (393.15 K, 55000 kPa) was 661.5 ± 1.6 kg/m3. For the same compound, the mass density (393.15 K, 60000 kPa) was 665.5 ± 1.7 kg/m3, the mass density (393.15 K, 65000 kPa) was 669.3 ± 1.7 kg/m3 and the mass density (393.15 K, 70000 kPa) was 673.1 ± 1.7 kg/m3. It also gave a mass density (393.15 K, 80000 kPa) of 680.1 ± 1.8 kg/m3, a mass density (393.15 K, 90000 kPa) of 686.5 ± 1.8 kg/m3 and a mass density (393.15 K, 100000 kPa) of 692.5 ± 1.9 kg/m3. It also gave a mass density (393.15 K, 110000 kPa) of 698.2 ± 1.9 kg/m3, a mass density (393.15 K, 120000 kPa) of 703.4 ± 2 kg/m3 and a mass density (393.15 K, 130000 kPa) of 708.5 ± 2 kg/m3. For the same compound, the mass density (393.15 K, 140000 kPa) was 713.4 ± 2.1 kg/m3.
